Test results from PubChem BioAssay (NCI).
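Dose response: 5 concentrations. Exposure: 48 h. Format: 96-well plates. Endpoint: linear interpolation; highest concentration if not reached. At the GI50, growth is halved. The concentration for full growth arrest is given as TGI.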

Legend:
Test in all cases: NCI-60 cell line screen, 48 h
NCI-H226 lung = tested on: NCI-H226 lung
MDA-MB-231 breast = tested on: MDA-MB-231 breast
LOX IMVI melanoma = tested on: LOX IMVI melanoma
SW-620 colon = tested on: SW-620 colon
T-47D breast = tested on: T-47D breast
SK-MEL-2 melanoma = tested on: SK-MEL-2 melanoma
A498 renal = tested on: A498 renal
SK-OV-3 ovarian = tested on: SK-OV-3 ovarian
EKVX NSCLC = tested on: EKVX NSCLC
HOP-62 NSCLC = tested on: HOP-62 NSCLC
NCI/ADR-RES ovarian = tested on: NCI/ADR-RES ovarian
M14 melanoma = tested on: M14 melanoma
KM12 colon = tested on: KM12 colon
RXF 393 renal = tested on: RXF 393 renal
K-562 leukemia = tested on: K-562 leukemia
786-0 renal = tested on: 786-0 renal
NCI-H460 lung = tested on: NCI-H460 lung
HS 578T breast = tested on: HS 578T breast
SK-MEL-5 melanoma = tested on: SK-MEL-5 melanoma
CAKI-1 renal = tested on: CAKI-1 renal
BT-549 breast = tested on: BT-549 breast
COLO 205 colon = tested on: COLO 205 colon
SN12C renal = tested on: SN12C renal
HCC-2998 colon = tested on: HCC-2998 colon
HL-60(TB) leukemia = tested on: HL-60(TB) leukemia
IGROV1 ovarian = tested on: IGROV1 ovarian
SF-539 CNS = tested on: SF-539 CNS
PC-3 prostate = tested on: PC-3 prostate
ACHN renal = tested on: ACHN renal
MCF7 breast = tested on: MCF7 breast
MOLT-4 leukemia = tested on: MOLT-4 leukemia
DU-145 prostate = tested on: DU-145 prostate
UO-31 renal = tested on: UO-31 renal
MDA-MB-435 = tested on: MDA-MB-435
SK-MEL-28 melanoma = tested on: SK-MEL-28 melanoma
TK-10 renal = tested on: TK-10 renal
OVCAR-3 ovarian = tested on: OVCAR-3 ovarian
SNB-19 CNS = tested on: SNB-19 CNS
HOP-92 NSCLC = tested on: HOP-92 NSCLC
SF-295 CNS = tested on: SF-295 CNS
HCT-116 colon = tested on: HCT-116 colon
OVCAR-4 ovarian = tested on: OVCAR-4 ovarian
HT29 colon = tested on: HT29 colon
SF-268 CNS = tested on: SF-268 CNS
HCT-15 colon = tested on: HCT-15 colon
MALME-3M melanoma = tested on: MALME-3M melanoma
OVCAR-8 ovarian = tested on: OVCAR-8 ovarian
NCI-H522 lung = tested on: NCI-H522 lung
SNB-75 CNS = tested on: SNB-75 CNS
RPMI-8226 leukemia = tested on: RPMI-8226 leukemia
A549 NSCLC = tested on: A549 NSCLC
U251 CNS = tested on: U251 CNS
CCRF-CEM leukemia = tested on: CCRF-CEM leukemia
OVCAR-5 ovarian = tested on: OVCAR-5 ovarian
NCI-H23 lung = tested on: NCI-H23 lung
SR leukemia = tested on: SR leukemia

C=C1C(=O)O[C@H]2[C@H]1CC/C(Cn1cc(-c3ccc(N)cc3)nn1)=C\CC[C@@]1(C)O[C@@H]21
GI50 (NCI-H226 lung): 3.34 µM
TGI (NCI-H226 lung): 13.2 µM
GI50 (MDA-MB-231 breast): 3.45 µM
TGI (MDA-MB-231 breast): 15.8 µM
GI50 (LOX IMVI melanoma): 1510 nM
TGI (LOX IMVI melanoma): 2880 nM
GI50 (SW-620 colon): 2160 nM
TGI (SW-620 colon): 6.01 µM
GI50 (T-47D breast): 2230 nM
TGI (T-47D breast): 5.77 µM
GI50 (SK-MEL-2 melanoma): 10.6 µM
TGI (SK-MEL-2 melanoma): 28.9 µM
GI50 (A498 renal): 10.4 µM
TGI (A498 renal): 26.1 µM
GI50 (SK-OV-3 ovarian): 18.3 µM
TGI (SK-OV-3 ovarian): 34.4 µM
GI50 (EKVX NSCLC): 3.89 µM
TGI (EKVX NSCLC): 18.5 µM
GI50 (HOP-62 NSCLC): 10.2 µM
TGI (HOP-62 NSCLC): 23.8 µM
GI50 (NCI/ADR-RES ovarian): 14.5 µM
TGI (NCI/ADR-RES ovarian): 38.2 µM
GI50 (M14 melanoma): 2970 nM
TGI (M14 melanoma): 10.8 µM
GI50 (KM12 colon): 11.4 µM
TGI (KM12 colon): 26.9 µM
GI50 (RXF 393 renal): 1410 nM
TGI (RXF 393 renal): 3.02 µM
GI50 (K-562 leukemia): 2990 nM
TGI (K-562 leukemia): > 100 µM
GI50 (786-0 renal): 1980 nM
TGI (786-0 renal): 4.62 µM
GI50 (NCI-H460 lung): 10.4 µM
TGI (NCI-H460 lung): 29.7 µM
GI50 (HS 578T breast): 4.46 µM
TGI (HS 578T breast): 27.4 µM
GI50 (SK-MEL-5 melanoma): 3.47 µM
TGI (SK-MEL-5 melanoma): 12.7 µM
GI50 (CAKI-1 renal): 1770 nM
TGI (CAKI-1 renal): 7.03 µM
GI50 (BT-549 breast): 3.05 µM
TGI (BT-549 breast): 11.7 µM
GI50 (COLO 205 colon): 1790 nM
TGI (COLO 205 colon): 4.05 µM
GI50 (SN12C renal): 3.48 µM
TGI (SN12C renal): 15.1 µM
GI50 (HCC-2998 colon): 3.49 µM
TGI (HCC-2998 colon): 12 µM
GI50 (HL-60(TB) leukemia): 2230 nM
TGI (HL-60(TB) leukemia): 6.43 µM
GI50 (IGROV1 ovarian): 2960 nM
TGI (IGROV1 ovarian): 14.1 µM
GI50 (SF-539 CNS): 2770 nM
TGI (SF-539 CNS): 8.75 µM
GI50 (PC-3 prostate): 10.1 µM
TGI (PC-3 prostate): 24.6 µM
GI50 (ACHN renal): 2650 nM
TGI (ACHN renal): 12 µM
GI50 (MCF7 breast): 2410 nM
TGI (MCF7 breast): 9.13 µM
GI50 (MOLT-4 leukemia): 2870 nM
TGI (MOLT-4 leukemia): 28.6 µM
GI50 (DU-145 prostate): 3.65 µM
TGI (DU-145 prostate): 14.1 µM
GI50 (UO-31 renal): 1870 nM
TGI (UO-31 renal): 10.1 µM
GI50 (MDA-MB-435): 3.01 µM
TGI (MDA-MB-435): 11.5 µM
GI50 (SK-MEL-28 melanoma): 2710 nM
TGI (SK-MEL-28 melanoma): 7.54 µM
GI50 (TK-10 renal): 2250 nM
TGI (TK-10 renal): 5.43 µM
GI50 (OVCAR-3 ovarian): 1620 nM
TGI (OVCAR-3 ovarian): 3.99 µM
GI50 (SNB-19 CNS): 12.7 µM
TGI (SNB-19 CNS): 41.1 µM
GI50 (HOP-92 NSCLC): 2130 nM
TGI (HOP-92 NSCLC): 5.33 µM
GI50 (SF-295 CNS): 12.1 µM
TGI (SF-295 CNS): 26.5 µM
GI50 (HCT-116 colon): 1550 nM
TGI (HCT-116 colon): 4.22 µM
GI50 (OVCAR-4 ovarian): 4.9 µM
TGI (OVCAR-4 ovarian): 18.6 µM
GI50 (HT29 colon): 2140 nM
TGI (HT29 colon): 5.47 µM
GI50 (SF-268 CNS): 3.7 µM
TGI (SF-268 CNS): 16.3 µM
GI50 (HCT-15 colon): 1420 nM
TGI (HCT-15 colon): 3.37 µM
GI50 (MALME-3M melanoma): 2180 nM
TGI (MALME-3M melanoma): 5.42 µM
GI50 (OVCAR-8 ovarian): 3.04 µM
TGI (OVCAR-8 ovarian): 12.4 µM
GI50 (NCI-H522 lung): 1370 nM
TGI (NCI-H522 lung): 3.07 µM
GI50 (SNB-75 CNS): 4.98 µM
TGI (SNB-75 CNS): 22.4 µM
GI50 (RPMI-8226 leukemia): 2750 nM
TGI (RPMI-8226 leukemia): 10.4 µM
GI50 (A549 NSCLC): 11.9 µM
TGI (A549 NSCLC): 28.1 µM
GI50 (U251 CNS): 4.16 µM
TGI (U251 CNS): 16.5 µM
GI50 (CCRF-CEM leukemia): 2000 nM
TGI (CCRF-CEM leukemia): 20.3 µM
GI50 (OVCAR-5 ovarian): 6.43 µM
TGI (OVCAR-5 ovarian): 22.9 µM
GI50 (NCI-H23 lung): 2490 nM
TGI (NCI-H23 lung): 7.72 µM
GI50 (SR leukemia): 702 nM
TGI (SR leukemia): > 100 µM
